Experimental data published in patent publication US6964983B2, “Compounds that modulate PPAR activity and methods for their preparation” (Warner-Lambert Company, LLC, priority 2002, dated 2005).
Where two headings read alike, the source gives them in different places.

Columns and labels:
[1] = biological target: T1, hPPARβ (Homo sapiens, UniProt Q03181); assay: Transient transfection assay in HepG2 cells, Gal4-hPPARβ chimeric receptor, luciferase reporter; assay type: cell-based
T1 sequence (Q03181 171-441 limits assumed): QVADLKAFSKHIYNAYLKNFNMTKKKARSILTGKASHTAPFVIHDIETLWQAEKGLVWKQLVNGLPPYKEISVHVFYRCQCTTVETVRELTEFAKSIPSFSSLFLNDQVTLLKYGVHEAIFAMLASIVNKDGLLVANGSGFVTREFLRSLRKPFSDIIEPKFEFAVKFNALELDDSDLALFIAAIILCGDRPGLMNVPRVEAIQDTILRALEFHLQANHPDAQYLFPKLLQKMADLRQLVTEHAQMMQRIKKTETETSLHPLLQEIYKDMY
Description: 1. Test A. Transient Transfections Assay using the HepG2 Hepatoma Cell Line.
HepG2 cells were transiently transfected with an expression plasmids encoding hPPARα, hPPARβ or mPPARγ chimeric receptors and a reporter containing the yeast upstream activating sequence (UAS) upstream of the viral E1B promoter controlling a luciferase reporter gene. In addition, the plasmid pRSVβ-gal was used to control for transfection efficiency. HepG2 cells were grown in DMEM supplemented with 10% FBS and 1 μM non-essential amino acid. On the first day, cells were split into 100 mm dishes at 2.5×10^6/dish and incubated overnight at 37° C./5% CO2. On the second day the cells were transiently transfected with plasmid DNA encoding a chimeric receptor, the luciferase reporter gene; and β-gal. For each 100 mm dish, 15 μg of lucifease reporter (PG5E1b) DNA, 15 μg of Gal4-PPAR chimeric receptor DNA, and 1.5 μg of β-gal plasmid DNA were mixed with 1.4 ml of opti-MEM in the tube. 28 μl of LipoFectamine-2000 reagent was added to 1.4 ml of opti-MEM in the tube, and incubate for 5 min at RT. The diluted Lipofectamine-2000 reagent was combined with the DNA mixture, and incubate for 20 min at RT. After fresh medium was added to each 100 mm dish of cells, 2.8 ml of Lipofectamine2000-DNA mixture was added dropwise to the 100 mm dish containing 14 ml of medium, and incubate 37° C. overnight. On day three cells were trypsinized off the 100 mm dishes and re-plated on 96 well plates. Cells were plated at 2.5×10^4 cells per well in 150 μl of media and 50 μl of compound diluted by media was added. The test compound added were in the range from 50 μM to 50 pM. After addition of compounds, the plates were incubated at 37° C. for 24 hours. Subsequently cells were washed with once with 100 μl of PBS, lysed, and processed for measuring luciferase and β-gal activity using Dual-Light luciferase kit from Tropix ®, according to the manufacturer's recommendations, on an EG&G Bethold MicroLumat LB96P luminometer. EC50 values were obtained using the GraphPad Prism™ program.

[2] = Hep G2-hBeta EC50, 24 hours incubation, read-out: EC50β nM (Group)

SMILES | melting point | EC50 [1, 2] [nM] | EC50 [1] [nM]
O=C(O)COc1ccc(SCc2cc(-c3ccc(C(F)(F)F)cc3)no2)c2c1CCC2 [Example 89, {7-[3-(4-Trifluoromethyl-phenyl)-isoxazol-5-ylmethylsulfanyl]-indan-4-yloxy}-acetic acid] | 166 to 168 °C | 1000 to 2000 | –
O=C(O)COc1ccc(SCc2ccc(OCc3ccc(F)cc3F)cc2)c2c1CCC2 [Example 66, {7-[4-(2,4-Difluoro-benzyloxy)-benzylsulfanyl]-indan-4-yloxy}-acetic acid] | 158 to 160 °C | > 5000 | –
CC(C)(C)c1ccc(COc2ccc(CSc3ccc(OCC(=O)O)c4c3CCC4)cc2)cc1 [Example 67, {7-[4-(4-tert-Butyl-benzyloxy)-benzylsulfanyl]-indan-4-yloxy}-acetic acid] | 152 to 153 °C | – | < 300
COc1ccc(CSc2ccc(OCC(=O)O)c3c2CCC3)cc1OCc1ccc(C(F)(F)F)cc1 [Example 78, {7-[4-Methoxy-3-(4-trifluoromethyl-benzyloxy)-benzylsulfanyl]-indan-4-yloxy}-acetic acid] | 150 to 151 °C | 300 to 500 | –
O=C(O)COc1ccc(SCc2cc(-c3ccc(Cl)cc3)no2)c2c1CCC2 [Example 98, {7-[3-(4-Chloro-phenyl)-isoxazol-5-ylmethylsulfanyl]-indan-4-yloxy}-acetic acid] | 158 to 160 °C | 2000 to 5000 | –
COc1cc(OCC(=O)O)c(C)cc1SCCc1cn(Cc2ccc(C(F)(F)F)cc2)c2ccccc12 [Example 54, (5-Methoxy-2-methyl-4-{2-[1-(4-trifluoromethyl-benzyl)-1H-indol-3-yl]-ethylsulfanyl}-phenoxy)-acetic acid] | – | 300 to 500 | –
Cc1cc(SCc2cc(-c3ccc(Cl)cc3)on2)ccc1OCC(=O)O [Example 96, {4-[5-(4-Chloro-phenyl)-isoxazol-3-ylmethylsulfanyl]-2-methyl-phenoxy}-acetic acid] | 152 to 153 °C | – | –
O=C(O)COc1ccc(SCc2ccc(OCc3ccccc3)cc2)c2c1CCC2 [Example 69, [7-(4-Benzyloxy-benzylsulfanyl)-indan-4-yloxy]-acetic acid] | 145 to 147 °C | 2000 to 5000 | –
O=C(O)COc1ccc(SCc2ccc(-c3ccc(C(F)(F)F)cn3)cc2)c2c1CCCO2 [Example 86, {8-[4-(5-Trifluoromethyl-pyridine-2-yl)-benzylsulfanyl]-chroman-5-yloxy}-acetic acid] | 178 to 179 °C | – | –
O=C(O)COc1ccc(SCc2ccc(OCc3ccc(F)cc3)cc2)c2c1CCC2 [Example 65] | 153 to 155 °C | > 5000 | –
O=C(O)COc1ccc(SCc2ccc(OCc3cc(Cl)cc(Cl)c3)cc2)c2c1CCC2 [Example 77, {7-[4-(3,5-Dichloro-benzyloxy)-benzylsulfanyl]-indan-4-yloxy}-acetic acid] | 134 to 135 °C | 300 to 500 | –
Cc1cc(SCc2ccc(OCc3ccc(C(F)(F)F)cc3)cc2)c2c(c1OCC(=O)O)CCC2 [Example 64, {5-Methyl-7-[4-(4-trifluoromethyl-benzyloxy)-benzylsulfanyl]-indan-4-yloxy}-acetic acid] | 165 to 167 °C | > 5000 | –
O=C(O)COc1ccc(SCc2ccc(OCc3ccc(OC(F)(F)F)cc3)cc2)c2c1CCC2 [Example 75, {7-[4-(4-Trifluoromethoxy-benzyloxy)-benzylsulfanyl]-indan-4-yloxy}-acetic acid] | 140 to 142 °C | 500 to 1000 | –
O=C(O)COc1ccc(SCCc2ccc(-c3ccc(C(F)(F)F)cc3)cc2)c2c1CCC2 [Example 90, {7-[2-(4′-Trifluoromethyl-biphenyl-4-yl)-ethylsulfanyl]-indan-4-yloxy}-acetic acid] | 170 to 172 °C | 500 to 1000 | –
Cc1cc(SCc2ccc(Oc3ccccc3)cc2)ccc1OCC(=O)O [Example 47, [2-Methyl-4-(4-phenoxy-benzylsulfanyl)-phenoxy]-acetic acid] | – | > 5000 | –

Further lines, with some results ahead:

melting point | EC50 [1, 2] [nM] | SMILES | EC50 [1] [nM]
164 °C | 2000 to 5000 | Cc1cc(SCc2ccc(OCc3ccc(Cl)cc3)cc2)ccc1OCC(=O)O [Example 58, {4-[4-(4-Chloro-benzyloxy)-benzylsulfanyl]-2-methyl-phenoxy}-acetic acid] | –
168 °C | 1000 to 2000 | O=C(O)COc1ccc(SCc2ccc(OCc3ccc(Cl)c(Cl)c3)cc2)c2c1CCC2 [Example 72, {7-[4-(3,4-Dichloro-benzyloxy)-benzylsulfanyl]-indan-4-yloxy}-acetic acid] | –
167 to 170 °C | – | O=C(O)COc1ccc(SCc2cc(-c3ccc(C(F)(F)F)cc3)on2)c2c1CCCC2 [Example 102, {4-[5-(4-trifluoromethyl-phenyl)-isoxazol-3-ylmethylsulfanyl]-5,6,7,8-tetrahydro-naphthalen-1-yloxy}-acetic acid] | –
243 to 245 °C | – | Cc1cc(/C=C/c2ccc(-c3ccc(C(F)(F)F)cc3)cc2)ccc1OCC(=O)O [Example 24, {2-Methyl-4-[2-(4′-trifluoromethyl-biphenyl-4-yl)-vinyl]-phenoxy}-acetic acid] | –
– | 2000 to 5000 | COc1cc(OCC(=O)O)c(C)cc1S(=O)(=O)Cc1ccc(-c2ccc(C(F)(F)F)cc2)cc1 [Example 50, [5-Methoxy-2-methyl-4-(4′-trifluoromethyl-biphenyl-4-ylmethanesulfonyl)-phenoxy]-acetic acid] | –
138 °C | – | Cc1cc(SCc2ccc(-c3ccccc3)cc2)ccc1OCC(=O)O [Example 2, [4-(Biphenyl-4-ylmethylsulfanyl)-2-methyl-phenoxy]-acetic acid] | –
– | 2000 to 5000 | COc1cc(OCC(=O)O)c(C)cc1[S+]([O-])Cc1ccc(-c2ccc(C(F)(F)F)cc2)cc1 (centres unmarked) [Example 51, [5-Methoxy-2-methyl-4-(4′-trifluoromethyl-biphenyl-4-ylmethanesulfinyl)-phenoxy]-acetic acid] | –
220 °C (dec.) | < 300 | O=C(O)COc1ccc(SCc2ccc(-c3ccc(C(F)(F)F)cn3)cc2)c2c1CCC2 [Example 26, {7-[4-(5-Trifluoromethyl-pyridin-2-yl)-benzylsulfanyl]-indan-4-yloxy}-acetic acid] | –
141 °C | 1000 to 2000 | COc1cc(OCC(=O)O)c(C)cc1SCc1ccc(-c2c(C)cc(C)cc2C)cc1 [Example 5, [5-Methoxy-2-methyl-4-(2′,4′,6′-trimethyl-biphenyl-4-ylmethylsulfanyl)-phenoxy]-acetic acid] | –
98 to 100 °C | 1000 to 2000 | O=C(O)COc1ccc(SCc2ccc(OCc3cc(Cl)ccc3Cl)cc2)c2c1CCCO2 [Example 85, {8-[4-(2,5-Dichloro-benzyloxy)-benzylsulfanyl]-chroman-5-yloxy}-acetic acid] | –
120 to 121 °C | – | Cc1cc(SCc2ccc(OCc3ccccc3)cc2)ccc1OCC(=O)O [Example 13, [4-(4-Benzyloxy-benzylsulfanyl)-2-methyl-phenoxy]-acetic acid] | –
– | < 300 | Cc1cc(SCc2ccc(-c3ccc(C(F)(F)F)cn3)cc2)c(Cl)cc1OCC(=O)O [Example 37, {5-Chloro-2-methyl-4-[4-(5-trifluoromethyl-pyridin-2-yl)-benzylsulfanyl]-phenoxy}-acetic acid] | –
– | < 300 | COc1cc(OCC(=O)O)c(C)cc1SCc1ccc(-c2ccc(C(F)(F)F)cc2)cc1C [Example 39, [5-Methoxy-2-methyl-4-(3-methyl-4′-trifluoromethyl-biphenyl-4-ylmethylsulfanyl)-phenoxy]-acetic acid] | –
171 to 173 °C | – | O=C(O)COc1ccc(SCc2cc(-c3ccc(C(F)(F)F)cc3)on2)c2c1CCCO2 [Example 94, {8-[5-(4-Trifluoromethyl-phenyl)-isoxazol-3-ylmethylsulfanyl]-chroman-5-yloxy}-acetic acid] | –
181 to 183 °C | – | O=C(O)COc1ccc(SCc2cc(-c3ccc(Cl)cc3)on2)c2c1CCCO2 [Example 95, {8-[5-(4-Chloro-phenyl)-isoxazol-3-ylmethylsulfanyl]-chroman-5-yloxy}-acetic acid] | –
– | 500 to 1000 | O=C(O)COc1ccc(SCc2ccc(Cc3ccc(C(F)(F)F)cc3)cc2)c2c1CCC2 [Example 40, {7-[4-(4-trifluoromethyl-benzyl)-benzylsulfanyl]-indan-4-yloxy}-acetic acid] | –
